# Patent publication US9239334B2, “Fatty acid C16: 1N7-palmitoleate a lipokine and biomarker for metabolic status” (PRESIDENT AND FELLOWS OF HARVARD COLLEGE, priority 2008, dated 2016)
# What was measured:
# [1] = test system: insulin receptor signaling in muscle tissue; assay: Insulin signaling in muscle of lipid-infused mice (immunoblotting); type: in vivo; conditions: fatty acid:palmitoleate infusion 3.3 μl/min
# Description: (§1) FIGS. 7A-7G show data on the regulation of insulin signaling and glucose metabolism by palmitoleate. FIG. 7A is the basal and insulin-stimulated phosphorylation of insulin receptor (IR), insulin receptor substrate-1 (IRS-1) and -2 (IRS-2) and AKT in liver of mice infused with vehicle (Veh), TG:palmitoleate (C16:1n7) or TG:palmitate (C16). Representative blots are shown and quantifications on the right are averaged results of three mice in each treatment group. […] Representative blots are shown and quantifications on the right are averaged results of three mice in each treatment group.
# The left panel presents the insulin-stimulated phosphorylation of insulin receptor and AKT in liver of mice infused with vehicle or palmitoleate. […] Mice were infused with vehicle or palmitoleate at 3.3 μl/min for six hrs, and insulin (1 U/Kg) was injected through the infusing tubing. Three minutes after insulin injection, tissues were collected and immunoblotting analyses were performed.
# The present invention also provides for the regulation of insulin action by increased circulating palmitoleate. To study whether palmitoleate regulates systemic metabolic responses, lipid infusions were administered in conscious mice. Lipid infusion has been used widely to investigate the relationship between plasma FFAs and insulin resistance, but almost all studies using this protocol utilized preparations of natural lipid products containing a variety of fatty acids. Kim et al., 114 J. Clin. Invest. 823-27 (2004); Kim et al., 277 J. Biol. Chem. 32915-22 (2002); Yu et al., 277 J. Biol. Chem. 50230-36 (2002). […]
# Samples of 200 μl serum were collected using heparin-coated glass tubes and spun at 13,000 g in a microcentrifuge to separate the plasma. […] Tissue protein lysates was separated with SDS-PAGE gels and phosphorylated or total proteins were detected with the following antibodies: phospho AKT Serine 473, AKT, insulin receptor, phospho-tyrosine (Santa Cruz Biotech.); IRS-1 and IRS-2 (Upstate); phospho-GSK and GSK (Cell Signaling Tech.); phospho-insulin receptor from (Calbiocbem). […]
# [2] = Hyperinsulinemic-euglycemic clamp in palmitoleate-infused mice; type: in vivo
# Description: as §1
# FIG. 7G is the regulation of systemic metabolic responses by adipose-derived lipid hormones (Lipokines). In parallel with a variety of adipokines, specific lipids released from adipocytes in response to physiological stimuli act at remote sites including liver and muscle and regulate systemic lipid and carbohydrate metabolism. Lipid chaperones negatively regulate one of these lipokines, C16:1n7 (palmitoleate), and in the absence of these FABPs, strong flux of palmitoleate from adipose tissue to liver and muscle results in improved metabolic responses.
# To investigate whether the increased insulin signaling by elevated serum palmitoleate can be translated into improved glucose metabolism, hyperinsulinemic-euglycemic clamp studies were performed on mice infused with either vehicle or palmitoleate. To enable delivery of lipid at a rate that is compatible with clamp studies, fatty acid:palmitoleate was used instead of TG:palmitoleate. That palmitoleate enhanced both muscle and liver insulin signaling in this setting was confirmed by examining insulin stimulated activation of insulin receptor and AKT (FIG. 21). […] Instead, the increased glucose infusion rate in these mice was driven by enhanced whole body glucose metabolism (FIG. 7F), confirming that the increased insulin signaling by palmitoleate infusion can be directly reflected as improved glycemic control in conscious mice.
# INTRALIPID® fatty acid lipid infusion solution with 2 mM triglycerides:palmitate or palmitoleate were prepared using a previously described protocol with modifications (Stein et al., 1997). Briefly, lipids were dissolved in a solvent containing 5% glycerol and 0.72% phosphocholine in 0.9% saline, heated at 80° C. for 10 min, and then sonicated 1 min four times. For TG:palmitoleate, the heating was omitted to avoid oxidization of the lipids. Lipids stay in suspension for a week, so to prevent clogging the preparations must be vortexed well before loading the syringe and tubing. […] Serum FFAs were determined using a commercial kit (Wako Chem.). […]
# [3] = hyperinsulinemic-euglycemic clamp, vs vehicle
structure (smiles),measurement,setting,value
"CCCCCC/C=C\CCCCCCCC(=O)O [palmitoleate, C16:1n7-palmitoleate]",muscle insulin signaling (insulin receptor and AKT activation),[1],enhanced
same,glucose infusion rate to maintain euglycemia,[2]; [3],significantly higher
same,whole body glucose metabolism (glucose disposal rate),[2]; [3],enhanced
same,clamped hepatic glucose production,"[2]; hyperinsulinemic-euglycemic clamp, vs vehicle controls",Neither basal nor clamped hepatic glucose production was significantly changed
same,basal hepatic glucose production,[2]; vs vehicle controls,Neither basal nor clamped hepatic glucose production was significantly changed
